The test system of this experiment is black mold Aspergillus niger (クロカビ). The experiment can be described thus: Antimicrobial test, black mold (PDA plate, colony diameter). The following applies: PDA medium, final concentration 500 mg/L, 25℃, 4 days; for inhibition at 500 µg/mL: 96 h, read-out: inhibition rate. The experiment is classed as cell-based.

The record followed here is patent publication JP2005330229A, “4−トリフルオロメトキシフェニル(オキシ)エチルアミン誘導体及び抗菌剤” (Ube Industries Ltd, priority 2004, dated 2005).

As a reminder, the inhibition is the relative decrease from the control value, in per cent.

As to `C[S+]([O-])c1ncccc1C(=O)NCCOc1ccc(OC(F)(F)F)cc1` (centres unmarked) [化合物番号5, 2−メチルスルフィニル−N−(2−(4−トリフルオロメトキシフェノキシ)エチル)ニコチン酸アミド], the inhibition at 500 µg/mL lay within 50 to 69%.
As to “2−エトキシ−N−(2−(4−トリフルオロメトキシフェノキシ)エチル)ニコチン酸アミド [化合物番号12]”, the inhibition rate entry was “B (B:70〜89%阻害)”.
Consider `O=C(NCCc1ccc(OC(F)(F)F)cc1)c1ccncc1` [化合物番号33, N−(2−(4−トリフルオロメトキシフェニル)エチル)イソニコチン酸アミド], for which the inhibition at 500 µg/mL was in the range of 70 to 89%.
Consider “N−(2−(4−トリフルオロメトキシフェノキシ)エチル)−9−トリフルオロメチル−ジピリド[2,3−b:3’,2’−f]1,4−チアゼピン−6(5H)−オン [化合物番号41]”, for which the inhibition rate entry was “C (C:50〜69%阻害)”.
For the molecule `CS(=O)(=O)c1ncccc1C(=O)NCCOc1ccc(OC(F)(F)F)cc1` [化合物番号4, 2−メチルスルホニル−N−(2−(4−トリフルオロメトキシフェノキシ)エチル)ニコチン酸アミド], the inhibition at 500 µg/mL was 70 to 89%.
